For 45 compounds, IC50 results are on record in patent US8664257B2, “Oxygen-substituted 3-heteroaroylamino-propionic acid derivatives and their use as pharmaceuticals” (Sanofi, priority 2010, dated 2014).

Where only a bound is given, the exact number is not on record here.

The first experiment deals with T1, Recombinant human cathepsin A (Homo sapiens, UniProt P10619).
T1 construct: Recombinant human cathepsin A (residues 29-480, with a C-terminal 10-His tag); 10-His (C); purchased R&D Systems 1049-SE
T1 sequence (P10619 29-312 limits assumed): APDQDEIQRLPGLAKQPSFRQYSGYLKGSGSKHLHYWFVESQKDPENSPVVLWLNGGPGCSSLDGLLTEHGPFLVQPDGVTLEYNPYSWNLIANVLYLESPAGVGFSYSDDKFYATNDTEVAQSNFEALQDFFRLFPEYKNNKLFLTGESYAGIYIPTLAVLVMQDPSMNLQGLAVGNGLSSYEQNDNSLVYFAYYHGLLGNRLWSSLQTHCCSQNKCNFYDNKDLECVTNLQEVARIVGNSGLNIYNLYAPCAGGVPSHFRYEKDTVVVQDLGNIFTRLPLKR
T1 sequence (P10619 327-480 limits assumed): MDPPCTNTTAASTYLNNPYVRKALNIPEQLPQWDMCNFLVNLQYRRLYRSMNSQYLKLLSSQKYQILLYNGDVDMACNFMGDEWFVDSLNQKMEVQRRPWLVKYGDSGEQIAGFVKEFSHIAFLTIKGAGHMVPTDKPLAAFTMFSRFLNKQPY
Briefly: Cathepsin A inhibitory activity. The experiment is classed as biochemical. The following applies: pharmacological test "Cathepsin A inhibitory activity"; IC50 given as class A/B/C; read-out: Activity (2): Cathepsin A inhibitory activity, IC50 class. A digest of the protocol: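 Human cathepsin A (res. 29-480, C-His10) pre-activated with cathepsin L (MES pH 6.0, DTT, 15 min, 37 °C; quenched with 10 μM E-64). Enzyme (833 ng/ml) preincubated 15 min RT with compound in MES pH 5.5/DTT, then 2 μM Bodipy FL-bradykinin for 15 min RT. Capillary electrophoresis product/substrate peak areas; IC50 from % inhibition.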
On to `Cc1ccccc1[C@H](CC(=O)O)NC(=O)c1cc(O)n(-c2nccc(C(F)(F)F)n2)n1` [Example 138], for which the IC50 (in general, the point on the concentration scale where inhibition reaches its midpoint) lay within 1000 to 30000 nM.

As to `O=C(O)CC(NC(=O)c1cc(O)n(-c2ccccc2F)n1)c1ccc(OC(F)(F)F)cc1` (stereo not shown) [Example 239], the IC50 fell in the range of 100 to 1000 nM.

For the compound `COc1ccc([C@H](CC(=O)O)NC(=O)c2cc(O)n(-c3cccc(Cl)c3)n2)cn1` [Example 269], the IC50 was in the range of 1000 to 30000 nM.

Take `O=C(O)CC(NC(=O)c1cc(O)n(-c2ccccc2Cl)n1)c1cccc(Cl)c1F` (stereo not shown) [Example 222]: the IC50 fell in the range of 100 to 1000 nM.

With `COc1cccc([C@H](CC(=O)O)NC(=O)c2cc(O)n(-c3ccccc3)n2)c1OC` [Example 170], the IC50 is 100 to 1000 nM.

Staying with this experiment, now noted: read-out: Activity (2): Cathepsin A inhibitory activity (IC50 class).
Consider `CS(=O)(=O)c1ccc(C(CC(=O)O)NC(=O)c2cc(O)n(-c3ccccc3F)n2)cc1` (stereo not shown) [Example 603, 3-{[1-(2-Fluoro-phenyl)-5-hydroxy-1H-pyrazole-3-carbonyl]-amino}-3-(4-methanesulfonyl-phenyl)-propionic acid], for which the IC50 was 1000 to 30000 nM.

For `O=C(O)CC(NC(=O)c1cc(O)n(C2CCCCC2)n1)c1ccc(-c2ccc(F)cc2)cc1` (stereo not shown) [Example 575], the 50% inhibitory concentration (IC50) fell in the range of 1000 to 30000 nM.

As for `Cc1ccccc1[C@H](CC(=O)O)NC(=O)c1cc(OC(=O)N2CCCCC2)n(-c2ccccc2F)n1` [Example 619], the half-inhibitory concentration (IC50) was under 100 nM.

Consider `COc1cc(-c2ccccc2)ccc1C(CC(=O)O)NC(=O)c1cc(O)n(-c2ccccc2)n1` (stereo not shown) [Example 545, 3-[(5-Hydroxy-1-phenyl-1H-pyrazole-3-carbonyl)-amino]-3-(3-methoxy-biphenyl-4-yl)-propionic acid], for which the IC50 lay in the range of 1000 to 30000 nM.

Turning to `CCOc1cc(C(=O)N[C@@H](CC(=O)O)c2ccc(C)cc2)nn1-c1ccccc1F` [Example 716], the IC50 is under 100 nM.

On to `Cc1ccccc1[C@H](CC(=O)O)NC(=O)c1cc(O)n(-c2cc(F)ccc2F)n1` [Example 599], for which the IC50 was under 100 nM.

On to `CCOc1cc(C(=O)N[C@@H](CC(=O)O)c2cccc(C)c2)nn1-c1ccccc1F` [Example 712], for which the IC50 is under 100 nM.

For `Cc1ccccc1[C@H](CC(=O)O)NC(=O)c1cc(O)n(C2CCCC2)n1` [Example 572], the IC50 is 100 to 1000 nM.

With `COc1cc(C(=O)NC(CC(=O)O)c2ccc(-c3ccc(F)cc3)cc2)nn1-c1ccccc1` (stereo not shown) [Example 544], the IC50 lay in the range of 1000 to 30000 nM.

As to `CCOc1cc(C(=O)NC(CC(=O)O)c2ccc(C)cc2C)nn1-c1ccccc1F` (stereo not shown) [Example 708], the IC50 is under 100 nM.

On to `COc1ccccc1[C@H](CC(=O)O)NC(=O)c1cc(OC)n(-c2ccccc2F)n1` [Example 667], for which the IC50 lay within 100 to 1000 nM.

Take `O=C(O)CC(NC(=O)c1cc(O)n(-c2ccccc2)n1)c1ccc(-c2ccccc2F)cc1` (stereo not shown) [Example 583]: the IC50 fell in the range of 1000 to 30000 nM.

The experiment is the same for the next values; noted with them: read-out: Activity (2): Cathepsin A inhibitory activity, IC50 class.
As to `CC(C)(C)[C@](C)(O)COc1cc(C(=O)N[C@@H](CC(=O)O)c2ccccc2C(F)(F)F)nn1-c1ccccc1F` [Example 799, (S)-3-{[1-(2-Fluoro-phenyl)-5-((S)-2-hydroxy-2,3,3-trimethyl-butoxy)-1H-pyrazole-3-carbonyl]-amino}-3-(2-trifluoromethyl-phenyl)-propionic acid], the IC50 was under 100 nM.

On to `O=C(O)C[C@H](NC(=O)c1cc(O)n(-c2ccc(F)cc2)n1)c1ccccc1Br` [Example 339], for which the half-inhibitory concentration (IC50) was in the range of 100 to 1000 nM.

Consider `O=C(O)CC(NC(=O)c1cc(O)n(-c2ccccc2)n1)c1ccc(C(F)(F)F)cc1` (stereo not shown) [Example 71], for which the half-maximal inhibitory concentration (IC50) fell in the range of 1000 to 30000 nM.

As to `O=C(O)C[C@H](NC(=O)c1cc(O)n(-c2cccc(F)c2)n1)c1ccc(Cl)cc1` [Example 331], the IC50 was in the range of 100 to 1000 nM.

In the case of `N#Cc1ccc([C@H](CC(=O)O)NC(=O)c2cc(O)n(-c3ccccc3Cl)n2)cc1` [Example 112], the IC50 lay within 100 to 1000 nM.

On to `Cc1ccc(C)c(-n2nc(C(=O)NC(CC(=O)O)c3ccc(C(F)(F)F)cc3)cc2O)c1` (stereo not shown) [Example 57], for which the concentration for half-maximal inhibition (IC50) lay in the range of 1000 to 30000 nM.

On to `Cc1ccc(C)c(-n2nc(C(=O)NC(CC(=O)O)c3ccc(Cl)cc3)cc2O)c1` (stereo not shown) [Example 45], for which the IC50 lay within 1000 to 30000 nM.

Turning to `O=C(O)C[C@H](NC(=O)c1cc(O)n(-c2ccc(F)cc2)n1)c1ccc(Cl)cc1` [Example 369], the IC50 was in the range of 100 to 1000 nM.

`Cc1ccccc1C(CC(=O)O)NC(=O)c1cc(O)n(-c2ccccc2)n1` (stereo not shown) [Example 21]: the IC50 lay within 100 to 1000 nM.

As to `O=C(O)CC(NC(=O)c1cc(O)n(-c2ccc(F)cc2F)n1)c1cccc(C(F)(F)F)c1F` (stereo not shown) [Example 385, 3-{[1-(2,4-Difluoro-phenyl)-5-hydroxy-1H-pyrazole-3-carbonyl]-amino}-3-(2-fluoro-3-trifluoromethyl-phenyl)-propionic acid], the 50% inhibitory concentration (IC50) is under 100 nM.

As to `O=C(O)CC(NC(=O)c1cc(O)n(-c2cccc(F)c2)n1)c1ccc(Oc2ccccc2)cc1` (stereo not shown) [Example 330], the IC50 was 100 to 1000 nM.

With `COc1ccc(C(CC(=O)O)NC(=O)c2cc(O)n(-c3ccccc3)n2)c(C)c1C` (stereo not shown) [Example 25], the IC50 was 1000 to 30000 nM.

In the case of `O=C(O)CC(NC(=O)c1cc(O)n(-c2ccc(F)cc2F)n1)c1cccc(Oc2ccc(Cl)cc2)c1` (stereo not shown) [Example 386], the IC50 was in the range of 100 to 1000 nM.

Regarding `Cc1ccc(C)c(-n2nc(C(=O)NC(CCc3ccccc3)CC(=O)O)cc2O)c1` (stereo not shown) [Example 34], the IC50 was 1000 to 30000 nM.

Turning to `COc1cccc([C@H](CC(=O)O)NC(=O)c2cc(OC[C@@](C)(O)C(C)(C)C)n(-c3ccccc3F)n2)c1OC` [Example 884, (S)-3-(2,3-Dimethoxy-phenyl)-3-{[1-(2-fluoro-phenyl)-5-((S)-2-hydroxy-2,3,3-trimethyl-butoxy)-1H-pyrazole-3-carbonyl]-amino}-propionic acid], the IC50 was under 100 nM.

With `Cc1ccc(C)c(-n2nc(C(=O)NC(CC(=O)O)C3CCOCC3)cc2O)c1` (stereo not shown) [Example 43], the IC50 fell in the range of 1000 to 30000 nM.

For the compound `O=C(O)CC(NC(=O)c1cc(O)n(-c2ccccc2Cl)n1)c1ccc(-n2ccnc2)cc1` (stereo not shown) [Example 116], the IC50 lay within 1000 to 30000 nM.

Regarding `Cc1ccc([C@H](CC(=O)O)NC(=O)c2cc(OC[C@@H](O)C(C)(C)C)n(-c3ccccc3F)n2)cc1` [Example 801, (S)-3-{[1-(2-Fluoro-phenyl)-5-((S)-2-hydroxy-3,3-dimethyl-butoxy)-1H-pyrazole-3-carbonyl]-amino}-3-p-tolyl-propionic acid], the IC50 was under 100 nM.

On to `CC(C)[C@@](C)(O)COc1cc(C(=O)N[C@@H](CC(=O)O)c2ccc(Cl)cc2Cl)nn1-c1ccccc1F` [Example 816, (S)-3-(2,4-Dichloro-phenyl)-3-{[1-(2-fluoro-phenyl)-5-((R)-2-hydroxy-2,3-dimethyl-butoxy)-1H-pyrazole-3-carbonyl]-amino}-propionic acid], for which the IC50 is under 100 nM.

As to `Cc1ccccc1[C@H](CC(=O)O)NC(=O)c1cc(OCC(C)(O)c2ccccc2)n(-c2ccccc2F)n1` (stereo partly drawn) [Example 891, (S)-3-{[1-(2-Fluoro-phenyl)-5-(2-hydroxy-2-phenyl-propoxy)-1H-pyrazole-3-carbonyl]-amino}-3-o-tolyl-propionic acid], the half-maximal inhibitory concentration (IC50) is under 100 nM.

As for `COc1ccc([C@H](CC(=O)O)NC(=O)c2cc(O)n(-c3ccccc3)n2)cc1` [Example 374], the IC50 lay within 100 to 1000 nM.

For the compound `COc1ccccc1[C@H](CC(=O)O)NC(=O)c1cc(O)n(-c2cccc(F)c2)n1` [Example 307], the IC50 was 100 to 1000 nM.

Consider `COc1ccc([C@H](CC(=O)O)NC(=O)c2cc(O)n(-c3ccccc3F)n2)cc1` [Example 398], for which the IC50 is 100 to 1000 nM.

For `Cc1ccc(C)c(-n2nc(C(=O)NC(CC(=O)O)c3cccc(Cl)c3)cc2O)c1` (stereo not shown) [Example 29], the IC50 was in the range of 1000 to 30000 nM.

The same experiment, now with this note: recombinant human cathepsin A 833 ng/ml, Bodipy FL-labeled bradykinin 2 μM, pH 5.5; read-out: CATH-A IC50.
As to `O=C(O)CC(NC(=O)c1cc(O)n(-c2ccccc2Cl)n1)c1cc(F)ccc1F` (stereo not shown) [Example 459, 3-{[1-(2-Chloro-phenyl)-5-hydroxy-1H-pyrazole-3-carbonyl]-amino}-3-(2,5-difluoro-phenyl)-propionic acid], the IC50 is 128 nM.

For the compound `O=C(O)CC(NC(=O)c1cc(O)n(-c2ccc(F)cc2F)n1)c1cccc(C(F)(F)F)c1F` (stereo not shown) [Example 385, 3-{[1-(2,4-Difluoro-phenyl)-5-hydroxy-1H-pyrazole-3-carbonyl]-amino}-3-(2-fluoro-3-trifluoromethyl-phenyl)-propionic acid], the IC50 came out at 60.7 nM.

For the compound `Cc1c(F)cccc1C(CC(=O)O)NC(=O)c1cc(O)n(-c2ccc(F)cc2F)n1` (stereo not shown) [Example 447, 3-{[1-(2,4-Difluoro-phenyl)-5-hydroxy-1H-pyrazole-3-carbonyl]-amino}-3-(3-fluoro-2-methyl-phenyl)-propionic acid], the IC50 was 114 nM.

Regarding `COc1cc(-c2ccccc2)ccc1C(CC(=O)O)NC(=O)c1cc(O)n(-c2ccccc2)n1` (stereo not shown) [Example 545, 3-[(5-Hydroxy-1-phenyl-1H-pyrazole-3-carbonyl)-amino]-3-(3-methoxy-biphenyl-4-yl)-propionic acid], the IC50 was found to be 1110 nM.

Staying with this experiment, now noted: recombinant human cathepsin A; read-out: Activity (2): Cathepsin A inhibitory activity, IC50 class.
For `O=C(O)CC(NC(=O)c1cc(O)n(-c2ccccc2Cl)n1)c1cc(F)ccc1F` (stereo not shown) [Example 459, 3-{[1-(2-Chloro-phenyl)-5-hydroxy-1H-pyrazole-3-carbonyl]-amino}-3-(2,5-difluoro-phenyl)-propionic acid], the IC50 was in the range of 100 to 1000 nM.

Consider `Cc1c(F)cccc1C(CC(=O)O)NC(=O)c1cc(O)n(-c2ccc(F)cc2F)n1` (stereo not shown) [Example 447, 3-{[1-(2,4-Difluoro-phenyl)-5-hydroxy-1H-pyrazole-3-carbonyl]-amino}-3-(3-fluoro-2-methyl-phenyl)-propionic acid], for which the IC50 is 100 to 1000 nM.

In the case of `O=C(O)C[C@H](NC(=O)c1cc(O)n(-c2cccc(F)c2)n1)c1ccccc1Cl` [Example 522], the IC50 is 100 to 1000 nM.

With `COc1cc(C(=O)N[C@@H](CC(=O)NCC(C)(C)C)c2ccccc2C)nn1-c1ccccc1F` [Example 924, 1-(2-Fluoro-phenyl)-5-methoxy-1H-pyrazole-3-carboxylic acid [(S)-2-(2,2-dimethyl-propylcarbamoyl)-1-o-tolyl-ethyl]-amide], the IC50 was under 100 nM.
